Experimental data published in patent US9796700B2 (Celgene CAR LLC, priority 2013, dated 2017).
pEC50, pIC50: −log10 of the molar value. Like-named read-outs stand apart in the source and are kept apart here.

Columns and labels:
[1] = biological target: Erk1 (Homo sapiens (Human), UniProt P27361); assay: Protein Mass Modification Assay (intact protein MALDI); type: binding
Procedure, shortened: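 Percent covalent modification comes from the intact-protein MALDI centroid mass shift, treated versus control, divided by compound MW. Before analysis, human Erk1 was exposed to compound at 10-fold excess over protein for 60 min at room temperature.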

[2] = system: ERK1 phosphorylation of its substrate RSK in HT29 cells; assay: pRSK MSD Assay in HT29 cells; type: cell-based; details: for pEC50: read-out: ERK1 PRSK MSD HT29 EC50; for EC50: HT-29, read-out: ERK1 PRSK MSD HT29 EC50 (nM)
Procedure: The protocol below describes an assay to measure the kinase activity of ERK1 to phosphorylate its substrate, RSK, in the presence of a test compound. This experiment was conducted using a Mesoscale Discovery plate. The day before the assay, HT29 cells were split and plated at 50,000 cells/well in complete growth media. After allowing cells to adhere, the media was removed and replaced with media containing 0.1% FBS and incubated overnight. Blank MDS plates were coated with 25 μl/well RSK capture antibody and incubated at 4° C. overnight. The next day, the media was removed and replaced with 100 μl of media containing a test compound and incubated for 120 minutes at 37° C. The media was removed and replaced with 55 μl of well lysis buffer with protease and phosphatase inhibitors provided in the kit, followed by incubation at 4° C. for 30 minutes. 50 μl of lysate was transferred to a blocked MSD plate, followed by incubation at room temperature for 2 hours under constant shaking. The plate was washed 3 times with MSD wash buffer (cat#R617TX), and 25 μl/well phospho-RSK (pRSK) detection antibody was added with an appropriate Sulfo-tagged anti-species detection antibody diluted in 1% BSA in MSD wash buffer. This mixture was incubated for 1 hour at room temperature under constant shaking. The plate was washed 3 times, and 150 μl 1×MSD read buffer was added, followed by signal detection in an MSD plate reader.

[3] = biological target: MEK1 activated ERK1 (Homo sapiens (Human), UniProt P27361); assay: Omnia continuous-read kinase assay for potency against MEK1 activated ERK1; type: biochemical; details: MEK1 activated ERK1, WT, ATP at KM
Procedure, shortened: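 Apparent IC50 came from initial reaction slopes (RFU vs time) plotted against log inhibitor with a variable-slope fit. Reactions were started with ERK1 (4 nM final) added to 50 μM ATP, roughly at its appKM, and 10 μM Sox-conjugated ST17 peptide in 20 mM Tris pH 7.5, 5 mM MgCl2. Fluorescence was monitored every 71 seconds.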

[4] = Homo sapiens, HT-29, HT29 cells

Erk1, sequence (P27361 whole entry, looked up): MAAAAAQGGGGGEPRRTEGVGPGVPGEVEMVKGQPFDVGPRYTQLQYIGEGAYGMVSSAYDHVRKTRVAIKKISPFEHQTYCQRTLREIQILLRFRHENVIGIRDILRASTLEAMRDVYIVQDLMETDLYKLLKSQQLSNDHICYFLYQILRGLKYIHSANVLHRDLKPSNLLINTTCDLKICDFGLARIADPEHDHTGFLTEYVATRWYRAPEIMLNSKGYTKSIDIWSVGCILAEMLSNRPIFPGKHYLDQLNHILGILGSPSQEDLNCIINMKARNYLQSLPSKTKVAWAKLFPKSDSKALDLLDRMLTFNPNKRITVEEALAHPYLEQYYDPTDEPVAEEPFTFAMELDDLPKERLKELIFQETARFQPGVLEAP
MEK1 activated ERK1, sequence (P27361 whole entry): as the sequence (P27361 whole entry, looked up) above

| ERK1 Mass Mod (%) [1] | pEC50 [2, 4] | pEC50 ([2]; HT29 cells) | pIC50 [3] | SMILES | EC50 ([2]; Homo sapiens) |
| --- | --- | --- | --- | --- | --- |
| E (provided a mass modification of ≧70%) | 6.30 to 7.00 | – | – | C=CC(=O)Nc1ccccc1Nc1nc(Nc2cncc(C(N)=O)c2)ncc1C(F)(F)F [Compound I-63, 5-((4-((2-Acrylamidophenyl)amino)-5-(trifluoromethyl)pyrimidin-2-yl)amino)nicotinamide] | – |
| G (proived a mass modification ≦30%) | 6.30 to 7.00 | – | – | C=C(C)S(=O)(=O)Nc1cc(F)ccc1Nc1nc(Nc2cc(C(N)=O)ccc2C)ncc1C(F)(F)F [Compound I-87, 3-((4-((4-Fluoro-2-(1-methylvinylsulfonamido)phenyl)amino)-5-(trifluoromethyl)pyrimidin-2-yl)amino)-4-methylbenzamide] | – |
| E (provided a mass modification of ≧70%) | 6.30 to 7.00 | – | – | C=CC(=O)Nc1ccccc1Nc1nc(N[C@H]2CC[C@H](O)CC2)ncc1Cl [Compound I-101] | – |
| E (provided a mass modification of ≧70%) | – | < 6.00 | – | C=CC(=O)Nc1ccccc1Nc1nc(N[C@H]2CC[C@@H](O)CC2)ncc1C(F)(F)F [Compound I-109, N-(2-((2-(cis-(4-hydroxycyclohexyl)amino)-5-(trifluoromethyl)pyrimidin-4-yl)amino)phenyl) acrylamide] | – |
| E (provided a mass modification of ≧70%) | < 6.00 | – | – | C=CC(=O)Nc1cc(C)ccc1Nc1nc(N[C@H]2CCN(S(=O)(=O)C=C)C2)ncc1C(F)(F)F [Compound I-279, (S)—N-(5-Methyl-2-((5-(trifluoromethyl)-2-((1-(vinylsulfonyl)pyrrolidin-3-yl)amino)pyrimidin-4-yl)amino)phenyl)acrylamide] | – |
| E (provided a mass modification of ≧70%) | – | – | < 6.00 | C=CC(=O)Nc1cc(C)ccc1Nc1nc(Nc2cc(O)ncc2C)ncc1C(F)(F)F [Compound I-365, N-(2-((2-((2-hydroxy-5-methylpyridin-4-yl)amino)-5-(trifluoromethyl)pyrimidin-4-yl)amino)-5-methylphenyl)acrylamide] | – |

The next lines start with the compound.

| SMILES | ERK1 Mass Mod (%) [1] | pEC50 [2, 4] | pEC50 ([2]; HT29 cells) | pIC50 [3] | EC50 ([2]; Homo sapiens) |
| --- | --- | --- | --- | --- | --- |
| C=CC(=O)Nc1ccccc1Nc1nc(N[C@@H]2CCC[C@H](C(=O)O)C2)ncc1Cl (racemic) [Compound I-133, Rac-3-((4-((2-acrylamidophenyl)amino)-5-chloropyrimidin-2-yl)amino)-cis-cyclohexanecarboxylic acid] | E (provided a mass modification of ≧70%) | < 6.00 | – | – | – |
| C=CC(=O)Nc1ccccc1Nc1nc(N[C@H]2CC[C@H](O)CC2)ncc1C(F)(F)F [Compound I-1, Trans-N-(2-((2-((4-hydroxycyclohexyl)amino)-5-(trifluoromethyl)pyrimidin-4-yl)amino)phenyl)acrylamide] | G (proived a mass modification ≦30%) | – | 6.30 to 7.00 | – | – |
| C=CC(=O)Nc1ccccc1Nc1nc(N[C@H]2CC[C@H](C(N)=O)CC2)ncc1C(F)(F)F [Compound I-16, 4-((4-((2-acrylamidophenyl)amino)-5-(trifluoromethyl)pyrimidin-2-yl)amino) -trans-cyclohexanecarboxamide] | E (provided a mass modification of ≧70%) | 6.00 to 6.30 | – | – | – |
| C=CC(=O)Nc1cc(C)ccc1Nc1nc(Nc2cc(C(C)=O)ccc2C)ncc1C(F)(F)F [Compound I-84, N-(2-((2-((5-Acetyl-2-methylphenyl)amino)-5-(trifluoromethyl)pyrimidin-4-yl)amino)-5-methylphenyl)acrylamide] | E (key: E: provided a mass modification of ≧70%; F: provided a mass modification of 31-69%; G: proived a mass modification ≦30%) | – | – | – | 101 to 500 nM |
| C=CC(=O)Nc1ccccc1Nc1nc(Nc2cc(OC)nc(N3CCN(C(C)=O)CC3)c2)ncc1C(F)(F)F [Compound I-92] | E (provided a mass modification of ≧70%) | > 7.00 | – | – | – |
| C=CC(=O)Nc1cc(C)ccc1Nc1nc(Nc2cc(OC)nc(OC)c2)ncc1C(F)(F)F [Compound I-96] | E (key: E: provided a mass modification of ≧70%; F: provided a mass modification of 31-69%; G: proived a mass modification ≦30%) | – | – | – | < 100 nM |
